We go through 3 molecules from paper PMC10788915, “Fragment Merging, Growing, and Linking Identify New Trypanothione Reductase Inhibitors for Leishmaniasis” (Journal of Medicinal Chemistry, 2024).

For assay [1], the system named is L. infantum axenic amastigotes. Kind of assay: In vitro inhibition of axenic amastigote growth (MTT). The format is cell-based, Leishmania infantum. To be noted: 72 h, read-out: axenic amastigote EC50 ± SE (95% CI). Here is the method:
Axenic amastigote growth inhibition was evaluated using L. infantum strain (MHOM/TN/80/IPT1, WHO international reference strain). Axenic amastigote cultures were obtained as described previously with modifications.[45] Promastigotes were grown in Schneider’s Drosophila medium (SIGMA) containing 10% heat-inactivated fetal calf serum (FCS)(GIBCO-BRL) and 2% gentamicin (50 mg/L)(Sigma) in 25 cm^2 flasks at 22 °C. After 4–5 days, the parasites were adjusted to 1 × 10^6 parasites/mL in axenic medium MAA/20 consisting of modified medium 199 (Gibco BRL) with Hanks’ salts supplemented with 0.5% tryptic soy broth (Sigma), 0.01 mM bathocuproine disulfonic acid, 3 mM L-cysteine, 15 mM D-glucose, 5 mM L-glutamine, 4 mM NaHCO3, 0.023 mM bovine hemin, and 25 mM HEPES to a final pH of 6.5 and supplemented with 20% pretested FCS, and axenic amastigotes were obtained by shifting the incubation conditions: 198 μL of suspension was seeded in triplicate in 96-well flat bottom microplates and incubated at 37 °C, 5% CO2 for 48 h in order to allow the axenization. The amastigote cells were visualized under the light microscope to confirm transformation. Then, 2 μL of the selected compounds with varying concentrations were added: 100, 50, 25, 12.5, 6.25, 3.12, 1.56, 0.8, 0.4, 0.2, 0.1, 0.05 μM. […] Each experiment was conducted in triplicate for each drug concentration, and three independent experiments were performed. To estimate the 50% inhibitory concentration (IC50), the (3-[4.5-dimethylthiazol-2-yl]-2.5-diphenyltetrazolium bromide) (MTT) micromethod was used throughout the experiments with modification. After 72 h of incubation, 30 μL of MTT was added to each well, and the plates were further incubated for 3 h. The absorbance at 550 nm was measured with a 96-well scanner. Antileishmanial activity was expressed as the percentage of inhibition in the number of live parasites compared to that in the control (nontreated parasites). % inhibition was calculated as follows: % growth inhibition = [(absorb cell with drug × 100)/absorb cell control] – 100. Results were analyzed by GraphPad Prism 5.0, dose–response curves were obtained and IC50 deduced (GraphPad Software Inc., San Diego, USA).

For assay [2], the target named is T1, Leishmania infantum TR (LiTR) (Leishmania infantum, UniProt A4HSF7).
T1 construct: The TbTR and LiTR genes were subcloned in a pET28b vector; 6-His (cleaved yes); made in house; host or cells: E. coli BL21(DE3), pET28b
Kind of assay: LiTR inhibition kinetics, Ki from Dixon plots. The format is biochemical. Conditions: for mode of inhibition of LiTR: Dixon plots; for Ki: graphically determined from Dixon plots. Here is the method:
Enzymatic inhibition assays were performed in 50 mM HEPES pH 7.4, 40 mM NaCl at 25 °C using a JASCO V650 spectrophotometer equipped with a JASCO EHC 716 Peltier element to ensure controlled temperature. The first experiment was carried out using 50 nM LiTR, 10 or 100 μM compound to be tested, 150 μM trypanothione (trypanothione disulfide purchased from Bachem), and 100 μM NADPH (tetrasodium salt, purchased from Calbiochem). The best inhibitor candidates were then tested at concentrations ranging from 1 nM to 250 μM to determine the IC50. Assays were initiated upon addition of 100 μM NADPH to 50 nM LiTR or hGR (human glutathione reductase purchased from Sigma-Aldrich) in the presence of different concentration of compounds and 150 μM trypanothione. For both experiments, the oxidation of NADPH was followed as a decrease in absorbance at 340 nm. For each concentration of compound, the initial velocity of the NADPH oxidation was used to determine the percentage of LiTR activity with respect to that in the absence of any compound. The IC50 was determined upon fitting the residual activity of TR as a dose–response logistic equation defined as ymin + (ymax – ymin)/(1 + (x/IC50)^slope). […] The Ki was determined graphically upon linear fitting of data points for each trypanothione concentration. Data analysis was performed with QtiPlot 0.9.8.9 svn 2288, and graphs were made with Matplotlib. […]
assays were carried out at 25°C on a JASCO V650 spectrophotometer equipped with a JASCO EHC716 Peltier unit. Compound concentrations range from 1 to 6 µM. Briefly, 50 nM LiTR were mixed in 50 mM HEPES pH 7.4, 40 mM NaCl with each compound and various concentrations of trypanothione (reported on the figure). After 3-minute incubation at 25°C, the measurement was initiated upon addition of 100 µM NADPH. The oxidation of NADPH was followed as a decrease in absorbance at 340 nm. The inverse of the initial velocity of LiTR enzymatic reaction was reported as a function of the compound concentration. The intersection of the linear fitting of data at different trypanothione concentration provides a graphical determination of the inhibition constant K i. Each data point is the mean of three measurements.
(1 picture or pasted object on this page, not shown here)

The term EC50 denotes the concentration giving half of the maximal effect. The Ki is the dissociation constant of the complex between target and ligand, obtained from inhibition or displacement. High values mean a looser hold on the target, low ones a stronger hold on the target.

Read-outs that look alike come from different tables or passages of the source.

T1 sequence (A4HSF7 1-491): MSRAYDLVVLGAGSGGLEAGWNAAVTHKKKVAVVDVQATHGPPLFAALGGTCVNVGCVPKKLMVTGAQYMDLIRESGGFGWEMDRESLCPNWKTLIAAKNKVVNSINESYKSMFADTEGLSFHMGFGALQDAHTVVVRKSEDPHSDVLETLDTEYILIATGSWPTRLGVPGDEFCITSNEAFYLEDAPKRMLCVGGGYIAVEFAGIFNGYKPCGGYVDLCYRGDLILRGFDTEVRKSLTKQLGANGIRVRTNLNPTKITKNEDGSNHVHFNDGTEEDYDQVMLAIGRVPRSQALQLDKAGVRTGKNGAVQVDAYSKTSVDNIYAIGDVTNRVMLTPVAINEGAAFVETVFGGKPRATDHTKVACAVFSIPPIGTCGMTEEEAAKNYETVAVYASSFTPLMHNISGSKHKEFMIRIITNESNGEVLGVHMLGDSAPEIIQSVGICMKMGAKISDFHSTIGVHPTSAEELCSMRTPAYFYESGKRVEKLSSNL

With `C[N+]1(CCCc2ccccc2)CCN(C(=O)N(Cc2ccc(C(=O)NCCc3ccc(F)cc3)o2)c2ccc(F)cc2)CC1.[I-]` [Compound 9, 4-(((5-((4-Fluorophenethyl)carbamoyl)furan-2-yl)methyl)(4-fluorophenyl)carbamoyl)-1-methyl-1-(3-phenylpropyl)piperazin-1-ium Iodide], in assay [1], the EC50 was 10.4 ± 1.1 µM. In addition, the EC50 in assay [1] (Leishmania infantum) worked out at 10.4 µM. For the same molecule, in assay [2], the “mode of inhibition of LiTR” value was “linear competitive inhibition” and the Ki came out at 5500 ± 200 nM.
On to `O=C(NCCc1ccc(F)cc1)c1ccc(CN(C(=O)N2CC[N+](CCCc3ccccc3)(Cc3ccc(Cl)c(Cl)c3)CC2)c2ccc(F)cc2)o1.[I-]` [Compound 10, 1-(3,4-Dichlorobenzyl)-4-(((5-((4-fluorophenethyl)carbamoyl)furan-2-yl)methyl)(4-fluorophenyl)carbamoyl)-1-(3-phenylpropyl)piperazin-1-ium Iodide], for which, in assay [1] (Leishmania infantum), the EC50 stood at 11 ± 1.9 µM. For the same molecule, in assay [2], the “mode of inhibition of LiTR” value was “linear competitive inhibition” and the Ki came to 200 nM.
As for `O=C(NCCc1ccc(F)cc1)c1ccc(CNC(=O)N2CC[N+](CCCc3ccccc3)(Cc3ccc(Cl)c(Cl)c3)CC2)o1.[I-]` [Compound 14, 1-(3,4-Dichlorobenzyl)-4-(((5-((4-fluorophenethyl)carbamoyl)furan-2-yl)methyl)carbamoyl)-1-(3-phenylpropyl)piperazin-1-ium Iodide], in assay [1] (Leishmania infantum), the EC50 turned out to be 8.98 ± 0.4 µM. In assay [2], the “mode of inhibition of LiTR” value is reported as “linear competitive inhibition” and the affinity corresponds to a Ki of 800 ± 200 nM.
